Data as given in PubChem BioAssay AID1259407 (Chemical Carcinogenesis Research Information System (CCRIS), 2018).
The source made the active and inactive calls. The rule behind the calls is not given here.

Tested on: CCRIS mutagenicity, Ames/micronucleus/aberration tests
Experiment: CCRIS mutagenicity studies
[1] = Test System: AMES SALMONELLA TYPHIMURIUM, Strain/Indicator: TA98, Metabolic Activation: NONE, Method: PREINCUBATION
[2] = Test System: AMES SALMONELLA TYPHIMURIUM, Strain/Indicator: TA100, Metabolic Activation: NONE, Method: PREINCUBATION

Cc1cc(N=Nc2ccccc2C)ccc1N
mutagenic call (Test System: AMES SALMONELLA TYPHIMURIUM, Strain/Indicator: TA98, Metabolic Activation: HAMSTER, LIVER, S-9, AROCLOR 1254, Method: STANDARD PLATE): active; positive
mutagenic call (Test System: AMES SALMONELLA TYPHIMURIUM, Strain/Indicator: TA98, Metabolic Activation: HAMSTER, LIVER, S-9, Method: PREINCUBATION (PRIVAL METHOD)): active; positive
mutagenic call [1]: inactive; negative
mutagenic call (Test System: AMES SALMONELLA TYPHIMURIUM, Strain/Indicator: TA98, Metabolic Activation: NONE, Method: STANDARD PLATE): inactive; negative
mutagenic call (Test System: AMES SALMONELLA TYPHIMURIUM, Strain/Indicator: TA98, Metabolic Activation: RAT LIVER S-9, Method: PREINCUBATION): active; positive
mutagenic call (Test System: AMES SALMONELLA TYPHIMURIUM, Strain/Indicator: TA98, Metabolic Activation: RAT LIVER, CYTOSOL, AROCLOR 1254, Method: PREINCUBATION): inactive; negative
mutagenic call (Test System: AMES SALMONELLA TYPHIMURIUM, Strain/Indicator: TA98, Metabolic Activation: RAT LIVER, MICROSOMES, AROCLOR 1254, Method: PREINCUBATION): active; positive
mutagenic call (Test System: AMES SALMONELLA TYPHIMURIUM, Strain/Indicator: TA98, Metabolic Activation: RAT, LIVER, MICROSOMES, AROCLOR 1254, Method: PREINCUBATION): active; positive
mutagenic call (Test System: AMES SALMONELLA TYPHIMURIUM, Strain/Indicator: TA98, Metabolic Activation: RAT, LIVER, MICROSOMES, O-AMINOAZOTOLUENE, Method: PREINCUBATION): inactive; negative
mutagenic call (Test System: AMES SALMONELLA TYPHIMURIUM, Strain/Indicator: TA98, Metabolic Activation: RAT, LIVER, MICROSOMES, Method: PREINCUBATION): inactive; negative
mutagenic call (Test System: AMES SALMONELLA TYPHIMURIUM, Strain/Indicator: TA98, Metabolic Activation: RAT, LIVER, S-9, AROCLOR 1254, HAMSTER, LIVER, S-9, AROCLOR 1254, Method: STANDARD PLATE): active; positive
mutagenic call (Test System: AMES SALMONELLA TYPHIMURIUM, Strain/Indicator: TA98, Metabolic Activation: RAT, LIVER, S-9, AROCLOR 1254, Method: STANDARD PLATE): active; positive
mutagenic call (Test System: AMES SALMONELLA TYPHIMURIUM, Strain/Indicator: TA98, Metabolic Activation: RAT, LIVER, S-9, KC500 OR PHENOBARBITAL, Method: LIQUID SUSPENSION): active; positive
mutagenic call (Test System: AMES SALMONELLA TYPHIMURIUM, Strain/Indicator: TA98, Metabolic Activation: RAT, LIVER, S-9, PCB, Method: PREINCUBATION): active; positive
mutagenic call (Test System: AMES SALMONELLA TYPHIMURIUM, Strain/Indicator: TA98, Metabolic Activation: RAT, LIVER, S-9, POLYCHLORINATED BIPHENYLS, Method: PREINCUBATION): active; positive
mutagenic call (Test System: AMES SALMONELLA TYPHIMURIUM, Strain/Indicator: TA100, Metabolic Activation: HAMSTER, LIVER, S-9, AROCLOR 1254, Method: STANDARD PLATE): active; positive
mutagenic call (Test System: AMES SALMONELLA TYPHIMURIUM, Strain/Indicator: TA100, Metabolic Activation: HAMSTER, LIVER, S-9, Method: PREINCUBATION (PRIVAL METHOD)): active; positive
mutagenic call [2]: inactive; negative
mutagenic call (Test System: AMES SALMONELLA TYPHIMURIUM, Strain/Indicator: TA100, Metabolic Activation: NONE, Method: STANDARD PLATE): inactive; negative
mutagenic call (Test System: AMES SALMONELLA TYPHIMURIUM, Strain/Indicator: TA100, Metabolic Activation: RAT LIVER S-9, Method: PREINCUBATION): active; positive
mutagenic call (Test System: AMES SALMONELLA TYPHIMURIUM, Strain/Indicator: TA100, Metabolic Activation: RAT, LIVER, S-9, AROCLOR 1254, HAMSTER, LIVER, S-9, AROCLOR 1254, Method: STANDARD PLATE): active; positive
mutagenic call (Test System: AMES SALMONELLA TYPHIMURIUM, Strain/Indicator: TA100, Metabolic Activation: RAT, LIVER, S-9, AROCLOR 1254, Method: STANDARD PLATE): active; positive
mutagenic call (Test System: AMES SALMONELLA TYPHIMURIUM, Strain/Indicator: TA100, Metabolic Activation: RAT, LIVER, S-9, KC500 OR PHENOBARBITAL, Method: LIQUID SUSPENSION): active; positive
mutagenic call (Test System: AMES SALMONELLA TYPHIMURIUM, Strain/Indicator: TA100, Metabolic Activation: RAT, LIVER, S-9, PCB, Method: PREINCUBATION): active; positive
mutagenic call (Test System: AMES SALMONELLA TYPHIMURIUM, Strain/Indicator: TA100, Metabolic Activation: RAT, LIVER, S-9, POLYCHLORINATED BIPHENYLS, Method: PREINCUBATION): active; positive
mutagenic call (Test System: AMES SALMONELLA TYPHIMURIUM, Strain/Indicator: TA1538, Metabolic Activation: NONE, Method: STANDARD PLATE): inactive; negative
mutagenic call (Test System: AMES SALMONELLA TYPHIMURIUM, Strain/Indicator: TA1538, Metabolic Activation: RAT, LIVER, S-9, AROCLOR 1254, HAMSTER, LIVER, S-9, AROCLOR 1254, Method: STANDARD PLATE): active; positive
mutagenic call (Test System: AMES SALMONELLA TYPHIMURIUM, Strain/Indicator: TA1538, Metabolic Activation: RAT, LIVER, S-9, AROCLOR 1254, Method: STANDARD PLATE): active; positive
mutagenic call (Test System: MOUSE LYMPHOMA, Strain/Indicator: L5178Y (TK+/TK-), Metabolic Activation: RAT, LIVER, S-9, AROCLOR 1254, Method: SUSPENSION/PLATE): active; positive. reevaluation of results: positive
mutagenic call (Test System: Mouse lymphoma, Strain/Indicator: L5178Y (tk+/tk-), Metabolic Activation: None, Method: Suspension/plate): inactive; negative

COc1ccc(C(=O)Nc2ccccc2)cc1[N+](=O)[O-]
mutagenic call (Test System: AMES SALMONELLA TYPHIMURIUM, Strain/Indicator: TA97, Metabolic Activation: HAMSTER, LIVER, S-9, AROCLOR 1254 (10%), Method: PREINCUBATION): active; positive
mutagenic call (Test System: AMES SALMONELLA TYPHIMURIUM, Strain/Indicator: TA97, Metabolic Activation: NONE, Method: PREINCUBATION): inactive; negative
mutagenic call (Test System: AMES SALMONELLA TYPHIMURIUM, Strain/Indicator: TA97, Metabolic Activation: RAT, LIVER, S-9, AROCLOR 1254 (10%), Method: PREINCUBATION): active; positive
mutagenic call (Test System: AMES SALMONELLA TYPHIMURIUM, Strain/Indicator: TA98, Metabolic Activation: HAMSTER, LIVER, S-9, AROCLOR 1254 (10%), Method: PREINCUBATION): active; positive
mutagenic call [1]: inactive; negative
mutagenic call (Test System: AMES SALMONELLA TYPHIMURIUM, Strain/Indicator: TA98, Metabolic Activation: RAT, LIVER, S-9, AROCLOR 1254 (10%), Method: PREINCUBATION): active; positive
mutagenic call (Test System: AMES SALMONELLA TYPHIMURIUM, Strain/Indicator: TA100, Metabolic Activation: HAMSTER, LIVER, S-9, AROCLOR 1254 (10%), Method: PREINCUBATION): active; positive
mutagenic call [2]: active; positive
mutagenic call (Test System: AMES SALMONELLA TYPHIMURIUM, Strain/Indicator: TA100, Metabolic Activation: RAT, LIVER, S-9, AROCLOR 1254 (10%), Method: PREINCUBATION): active; positive
mutagenic call (Test System: AMES SALMONELLA TYPHIMURIUM, Strain/Indicator: TA1535, Metabolic Activation: HAMSTER, LIVER, S-9, AROCLOR 1254 (10%), Method: PREINCUBATION): inactive; negative
mutagenic call (Test System: AMES SALMONELLA TYPHIMURIUM, Strain/Indicator: TA1535, Metabolic Activation: NONE, Method: PREINCUBATION): inactive; negative
mutagenic call (Test System: AMES SALMONELLA TYPHIMURIUM, Strain/Indicator: TA1535, Metabolic Activation: RAT, LIVER, S-9, AROCLOR 1254 (10%), Method: PREINCUBATION): inactive; negative
mutagenic call (Test System: AMES SALMONELLA TYPHIMURIUM, Strain/Indicator: TA1537, Metabolic Activation: HAMSTER, LIVER, S-9, AROCLOR 1254 (10%), Method: PREINCUBATION): active; positive
mutagenic call (Test System: AMES SALMONELLA TYPHIMURIUM, Strain/Indicator: TA1537, Metabolic Activation: NONE, Method: PREINCUBATION): inactive; negative
mutagenic call (Test System: AMES SALMONELLA TYPHIMURIUM, Strain/Indicator: TA1537, Metabolic Activation: RAT, LIVER, S-9, AROCLOR 1254 (10%), Method: PREINCUBATION): active; positive

CC(C)CCC[C@@H](C)[C@H]1CC[C@H]2[C@@H]3CC=C4C[C@@H](O)CC[C@]4(C)[C@H]3CC[C@]12C
mutagenic call (Test System: CHINESE HAMSTER V-79, Strain/Indicator: V-79/OUABAIN, Metabolic Activation: NONE): inactive; negative

O/N=C/c1ccccn1
mutagenic call (Test System: AMES SALMONELLA TYPHIMURIUM, Strain/Indicator: TA102, Metabolic Activation: RAT, LIVER, S-9, PHENOBARBITAL AND 5,6-BENZOFLAVONE, Method: STANDARD PLATE): inactive; negative
mutagenic call (Test System: AMES SALMONELLA TYPHIMURIUM, Strain/Indicator: TA2638, Metabolic Activation: RAT, LIVER, S-9, PHENOBARBITAL AND 5,6-BENZOFLAVONE, Method: STANDARD PLATE): inactive; negative
mutagenic call (Test System: E. COLI, Strain/Indicator: WP2 (PKM101), Metabolic Activation: RAT, LIVER, S-9, PHENOBARBITAL AND 5,6-BENZOFLAVONE, Method: STANDARD PLATE): inactive; negative
mutagenic call (Test System: E. COLI, Strain/Indicator: WP2 UVRA (PKM101), Metabolic Activation: RAT, LIVER, S-9, PHENOBARBITAL AND 5,6-BENZOFLAVONE, Method: STANDARD PLATE): active; positive
